This is an account of results in ChEMBL document CHEMBL1149573, “Synthesis and reactivity of azobenzene-based bispropargyl sulfones: interesting comparison between cyclic and acyclic systems” (Bioorg Med Chem Lett, 2007).

This assay concerns Escherichia coli. The assay can be described thus: Induction of pBR322 DNA cleavage after 2.5 hrs relative to (E)-1,2-bis(2-(4-(phenylsulfonyl)but-2-ynyloxy)phenyl)diazene.

In turn, `O=S(=O)(CC#CCOc1ccc2ccccc2c1)c1ccccc1` gave an Activity of 15%.
